Data reported in patent US9513294B2, “Megastokes amino-triazolyl-BODIPY compounds and applications to live neuron staining and human serum albumin FA1 drug site probing” (National University of Singapore, priority 2012, dated 2016).

Key:
[1] = Absorbance and fluorescence emission spectra (SpectraMax M2); format: physicochemical; details: MKCA compound library; for λmax Absorp. (nm): absorbance maximum; for λmax Emission (nm): fluorescence emission maximum
How it was run: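 Absorbance and emission maxima measured on a SpectraMax M2 spectrophotometer, which also gave quantum yield data; analysis in GraphPrism.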

[2] = Quantum yield measurements versus Acridine Yellow in EtOH; format: physicochemical; details: MKCA compound library; quantum yield
How it was run: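 Fluorescence quantum yield is relative to Acridine Yellow in EtOH (Φ 0.47), with excitation at 460 nm. Integrated emission at 510–700 nm was corrected for absorbance at the excitation wavelength and for solvent refractive index.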

| Compound | λmax Absorp. (nm) [1] [nm] | λmax Emission (nm) [1] [nm] | φ (%) [2] [%] |
| --- | --- | --- | --- |
| CC1CN(C2=[N+]3C(=C(c4ccc(NC(=O)CCl)cc4)c4ccc(-n5cc(CCc6ccccc6)nn5)n4[B-]3(F)F)C=C2)CC(C)O1 (stereo not drawn) [MKCA20-19] | 467 | 583 | 5.32 |
| CC(C)Cc1cn(-c2ccc3n2[B-](F)(F)[N+]2=C(N4CC(C)OC(C)C4)C=CC2=C3c2ccc(NC(=O)CCl)cc2)nn1 (stereo not drawn) [MKCA20-43] | 468 | 585 | 2.19 |
| CCCc1cn(-c2ccc3n2[B-](F)(F)[N+]2=C(N4CC(C)OC(C)C4)C=CC2=C3c2ccc(NC(=O)CCl)cc2)nn1 (stereo not drawn) [MKCA20-48] | 466 | 569 | 4.88 |
| CCCCCC(O)c1cn(-c2ccc3n2[B-](F)(F)[N+]2=C(N4CC(C)OC(C)C4)C=CC2=C3c2ccc(NC(=O)CCl)cc2)nn1 (stereo not drawn) [MKCA20-69] | 469 | 586 | 3.23 |
| CC1CN(C2=[N+]3C(=C(c4ccc(NC(=O)CCl)cc4)c4ccc(-n5cc(CO)nn5)n4[B-]3(F)F)C=C2)CC(C)O1 (stereo not drawn) [MKCA20-70] | 469 | 587 | 2.64 |
| CCCC(C)c1cn(-c2ccc3n2[B-](F)(F)[N+]2=C(N4CCc5ccccc5C4)C=CC2=C3c2ccc(NC(=O)CCl)cc2)nn1 (stereo not drawn) [MKCA66-3] | 469 | 582 | 3.50 |
| O=C(CCl)Nc1ccc(C2=C3C=CC(N4CCc5ccccc5C4)=[N+]3[B-](F)(F)n3c2ccc3-n2cc(C3CC3)nn2)cc1 [MKCA66-4] | 469 | 587 | 3.33 |
| O=C(CCl)Nc1ccc(C2=C3C=CC(N4CCc5ccccc5C4)=[N+]3[B-](F)(F)n3c2ccc3-n2cc(C3CCCC3)nn2)cc1 [MKCA66-5] | 470 | 587 | 3.11 |
| O=C(CCl)Nc1ccc(C2=C3C=CC(N4CCc5ccccc5C4)=[N+]3[B-](F)(F)n3c2ccc3-n2cc(CC3CCCCC3)nn2)cc1 [MKCA66-8] | 469 | 582 | 3.05 |
| CN(Cc1ccccc1)Cc1cn(-c2ccc3n2[B-](F)(F)[N+]2=C(N4CCc5ccccc5C4)C=CC2=C3c2ccc(NC(=O)CCl)cc2)nn1 [MKCA66-18] | 466 | 585 | 2.33 |
| CCCc1cn(-c2ccc3n2[B-](F)(F)[N+]2=C(N4CCc5ccccc5C4)C=CC2=C3c2ccc(NC(=O)CCl)cc2)nn1 [MKCA66-48] | 469 | 584 | 3.18 |
| CCCCCC(O)c1cn(-c2ccc3n2[B-](F)(F)[N+]2=C(N4CCc5ccccc5C4)C=CC2=C3c2ccc(NC(=O)CCl)cc2)nn1 (stereo not drawn) [MKCA66-69] | 469 | 586 | 3.38 |
| O=C(CCl)Nc1ccc(C2=C3C=CC(N4CCc5ccccc5C4)=[N+]3[B-](F)(F)n3c2ccc3-n2cc(CO)nn2)cc1 [MKCA66-70] | 468 | 581 | 2.61 |
| Cc1ccccc1CNC1=[N+]2C(=C(c3ccc(NC(=O)CCl)cc3)c3ccc(-n4cc(C5CC5)nn4)n3[B-]2(F)F)C=C1 [MKCA101-4] | 464 | 565 | 34.56 |
| Cc1ccccc1CNC1=[N+]2C(=C(c3ccc(NC(=O)CCl)cc3)c3ccc(-n4cc(C5CCCC5)nn4)n3[B-]2(F)F)C=C1 [MKCA101-5] | 466 | 563 | 31.53 |
| Cc1ccccc1CNC1=[N+]2C(=C(c3ccc(NC(=O)CCl)cc3)c3ccc(-n4cc(CC5CCCCC5)nn4)n3[B-]2(F)F)C=C1 [MKCA101-8] | 464 | 562 | 30.95 |
